Source: ChEMBL document CHEMBL2203078, “Identification of amides as carboxylic Acid surrogates for quinolizidinone-based m1 positive allosteric modulators” (ACS Med Chem Lett, 2012)
Active and inactive are the calls of the source. The calls are words filed in the database; no cut-off is given here.

Experiments:
MDR1 (P-gp, ABCB1) = MDR1 (P-gp, ABCB1) (Homo sapiens, UniProt P08183); experiment: in vitro; details: not told
Description: Efflux ratio assessed as human MDR1-mediated directional transport ratio from basolateral to apical over apical to basolateral by cell based assay

[1] = target: T1, Muscarinic acetylcholine receptor M2 (Homo sapiens) (UniProt P08172); experiment: Activity at muscarinic M2 receptor expressing in CHONFAT cells assessed as potentiation of acetylcholine-induced calcium mobilization preincubated for 4 mins and measured 4 mins after acetylcholine stimulation by FLIPR assay; format: functional, cell-based
T1 sequence (whole entry): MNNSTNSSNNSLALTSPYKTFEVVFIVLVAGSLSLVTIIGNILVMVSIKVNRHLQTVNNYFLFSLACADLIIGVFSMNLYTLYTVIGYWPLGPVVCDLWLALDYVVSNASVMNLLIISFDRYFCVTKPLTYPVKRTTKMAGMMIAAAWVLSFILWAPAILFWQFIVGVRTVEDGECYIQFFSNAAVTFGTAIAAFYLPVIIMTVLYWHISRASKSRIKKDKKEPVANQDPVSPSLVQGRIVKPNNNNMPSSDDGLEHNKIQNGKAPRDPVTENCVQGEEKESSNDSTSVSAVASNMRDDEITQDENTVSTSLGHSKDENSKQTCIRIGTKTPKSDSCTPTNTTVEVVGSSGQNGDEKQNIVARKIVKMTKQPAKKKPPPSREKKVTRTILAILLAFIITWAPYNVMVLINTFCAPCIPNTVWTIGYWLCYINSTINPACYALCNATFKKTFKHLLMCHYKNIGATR

MDR1a (P-gp, ABCB1) = MDR1a (P-gp, ABCB1) (Rattus norvegicus, UniProt P43245); experiment: in vitro; details: not told
MDR1a (P-gp, ABCB1), sequence (P43245 whole entry): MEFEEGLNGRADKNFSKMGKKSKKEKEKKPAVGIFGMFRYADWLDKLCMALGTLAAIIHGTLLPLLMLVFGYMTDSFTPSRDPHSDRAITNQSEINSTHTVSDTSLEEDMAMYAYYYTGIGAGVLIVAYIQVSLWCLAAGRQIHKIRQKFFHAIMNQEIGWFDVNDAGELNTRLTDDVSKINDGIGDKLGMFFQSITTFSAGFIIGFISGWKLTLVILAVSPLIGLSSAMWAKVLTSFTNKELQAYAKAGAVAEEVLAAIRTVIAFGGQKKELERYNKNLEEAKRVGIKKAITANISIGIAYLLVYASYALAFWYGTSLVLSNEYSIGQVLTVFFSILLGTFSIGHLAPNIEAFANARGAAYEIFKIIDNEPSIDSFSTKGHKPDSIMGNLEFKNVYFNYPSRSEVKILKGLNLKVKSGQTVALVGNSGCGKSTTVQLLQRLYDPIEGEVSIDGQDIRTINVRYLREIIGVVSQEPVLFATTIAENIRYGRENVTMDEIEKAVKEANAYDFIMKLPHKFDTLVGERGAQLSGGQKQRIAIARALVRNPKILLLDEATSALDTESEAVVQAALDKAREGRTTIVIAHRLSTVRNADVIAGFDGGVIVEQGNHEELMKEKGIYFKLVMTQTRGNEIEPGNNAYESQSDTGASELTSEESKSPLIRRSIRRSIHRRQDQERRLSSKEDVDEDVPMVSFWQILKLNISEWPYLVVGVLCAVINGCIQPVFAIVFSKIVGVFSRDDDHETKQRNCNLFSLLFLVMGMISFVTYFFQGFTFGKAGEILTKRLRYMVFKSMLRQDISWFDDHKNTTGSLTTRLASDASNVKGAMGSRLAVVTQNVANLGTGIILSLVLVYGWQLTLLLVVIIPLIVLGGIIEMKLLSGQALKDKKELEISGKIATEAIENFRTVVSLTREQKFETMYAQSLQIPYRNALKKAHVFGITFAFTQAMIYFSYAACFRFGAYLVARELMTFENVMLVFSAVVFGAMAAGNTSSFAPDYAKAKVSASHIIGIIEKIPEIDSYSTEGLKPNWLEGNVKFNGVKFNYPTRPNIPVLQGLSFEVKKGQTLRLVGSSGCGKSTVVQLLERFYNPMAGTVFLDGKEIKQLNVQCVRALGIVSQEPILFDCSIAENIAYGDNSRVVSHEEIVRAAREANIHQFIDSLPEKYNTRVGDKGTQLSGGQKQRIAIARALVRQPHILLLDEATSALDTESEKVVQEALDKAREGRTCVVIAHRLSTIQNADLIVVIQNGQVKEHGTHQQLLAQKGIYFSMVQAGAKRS
Description: Efflux ratio assessed as rat MDR1a-mediated directional transport ratio from basolateral to apical over apical to basolateral by cell based assay

[2] = Drug concentration in Sprague-Dawley rat brain at 10 mg/kg, po after 2 hrs; format: ADME, organism-based; design: dose 10 mg/kg, route oral; details: read-out: Drug uptake
[3] = target: Voltage-gated inwardly rectifying potassium channel KCNH2 (Homo sapiens, UniProt Q12809); experiment: Binding affinity to human ERG
Voltage-gated inwardly rectifying potassium channel KCNH2, sequence (Q12809 whole entry): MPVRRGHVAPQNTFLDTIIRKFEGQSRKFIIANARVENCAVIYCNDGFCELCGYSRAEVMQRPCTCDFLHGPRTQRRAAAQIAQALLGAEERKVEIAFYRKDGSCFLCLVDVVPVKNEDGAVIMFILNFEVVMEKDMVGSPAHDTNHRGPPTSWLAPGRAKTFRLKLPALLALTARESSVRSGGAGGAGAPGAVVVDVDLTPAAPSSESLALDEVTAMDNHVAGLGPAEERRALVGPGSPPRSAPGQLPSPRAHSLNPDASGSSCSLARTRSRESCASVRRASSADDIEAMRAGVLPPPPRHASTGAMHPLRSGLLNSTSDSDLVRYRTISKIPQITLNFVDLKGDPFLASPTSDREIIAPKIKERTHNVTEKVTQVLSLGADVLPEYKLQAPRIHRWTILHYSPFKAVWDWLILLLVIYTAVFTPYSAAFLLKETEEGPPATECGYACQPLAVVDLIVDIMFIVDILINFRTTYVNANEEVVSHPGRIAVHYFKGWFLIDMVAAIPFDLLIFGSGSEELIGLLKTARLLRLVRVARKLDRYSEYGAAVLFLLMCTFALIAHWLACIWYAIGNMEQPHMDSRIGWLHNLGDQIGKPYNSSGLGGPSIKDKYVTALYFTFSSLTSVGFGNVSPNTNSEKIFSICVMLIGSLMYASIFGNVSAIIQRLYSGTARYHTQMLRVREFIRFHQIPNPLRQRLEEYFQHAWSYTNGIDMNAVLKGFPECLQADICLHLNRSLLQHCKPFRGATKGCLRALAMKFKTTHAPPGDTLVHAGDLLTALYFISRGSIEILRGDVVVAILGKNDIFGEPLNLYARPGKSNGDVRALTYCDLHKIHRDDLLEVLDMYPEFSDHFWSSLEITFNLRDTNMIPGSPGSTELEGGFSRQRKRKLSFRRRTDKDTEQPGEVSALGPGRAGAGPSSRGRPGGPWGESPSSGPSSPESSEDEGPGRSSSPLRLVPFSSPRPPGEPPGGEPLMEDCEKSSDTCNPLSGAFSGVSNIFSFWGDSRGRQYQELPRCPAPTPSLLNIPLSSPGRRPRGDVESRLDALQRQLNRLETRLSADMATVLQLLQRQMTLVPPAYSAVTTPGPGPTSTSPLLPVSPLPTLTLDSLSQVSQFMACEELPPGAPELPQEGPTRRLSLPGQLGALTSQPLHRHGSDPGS

[4] = Drug concentration in Sprague-Dawley rat CSF at 10 mg/kg, po after 2 hrs; format: ADME, organism-based, Cerebrospinal fluid; design: dose 10 mg/kg, route oral; details: read-out: Drug uptake
[5] = target: T2, Muscarinic acetylcholine receptor M1 (Homo sapiens) (UniProt P11229); experiment: Positive allosteric modulation of human muscarinic M1 receptor expressing in CHONFAT cells assessed as potentiation of acetylcholine-induced calcium mobilization preincubated for 4 mins and measured 4 mins after acetylcholine stimulation by FLIPR assay; format: functional, cell-based
T2 sequence (whole entry): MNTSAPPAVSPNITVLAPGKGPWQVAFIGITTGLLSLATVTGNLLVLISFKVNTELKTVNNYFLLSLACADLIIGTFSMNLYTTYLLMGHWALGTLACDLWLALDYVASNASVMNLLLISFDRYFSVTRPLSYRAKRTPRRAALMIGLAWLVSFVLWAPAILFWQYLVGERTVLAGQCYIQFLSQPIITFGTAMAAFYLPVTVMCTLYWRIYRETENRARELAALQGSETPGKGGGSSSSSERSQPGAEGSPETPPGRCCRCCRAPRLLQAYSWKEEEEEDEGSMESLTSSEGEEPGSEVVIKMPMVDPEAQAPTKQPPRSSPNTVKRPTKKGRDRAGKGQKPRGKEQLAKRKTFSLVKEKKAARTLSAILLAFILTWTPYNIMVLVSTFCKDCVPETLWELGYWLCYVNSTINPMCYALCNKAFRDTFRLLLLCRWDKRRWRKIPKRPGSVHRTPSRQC

[6] = Protein binding in human plasma; format: ADME, cell-free; details: read-out: PPB (converted)
[7] = target: Muscarinic acetylcholine receptor M3 (Homo sapiens) (UniProt P20309); experiment: Activity at muscarinic M3 receptor expressing in CHONFAT cells assessed as potentiation of acetylcholine-induced calcium mobilization preincubated for 4 mins and measured 4 mins after acetylcholine stimulation by FLIPR assay; format: functional, cell-based
Muscarinic acetylcholine receptor M3 (Homo sapiens), sequence (P20309 whole entry, looked up): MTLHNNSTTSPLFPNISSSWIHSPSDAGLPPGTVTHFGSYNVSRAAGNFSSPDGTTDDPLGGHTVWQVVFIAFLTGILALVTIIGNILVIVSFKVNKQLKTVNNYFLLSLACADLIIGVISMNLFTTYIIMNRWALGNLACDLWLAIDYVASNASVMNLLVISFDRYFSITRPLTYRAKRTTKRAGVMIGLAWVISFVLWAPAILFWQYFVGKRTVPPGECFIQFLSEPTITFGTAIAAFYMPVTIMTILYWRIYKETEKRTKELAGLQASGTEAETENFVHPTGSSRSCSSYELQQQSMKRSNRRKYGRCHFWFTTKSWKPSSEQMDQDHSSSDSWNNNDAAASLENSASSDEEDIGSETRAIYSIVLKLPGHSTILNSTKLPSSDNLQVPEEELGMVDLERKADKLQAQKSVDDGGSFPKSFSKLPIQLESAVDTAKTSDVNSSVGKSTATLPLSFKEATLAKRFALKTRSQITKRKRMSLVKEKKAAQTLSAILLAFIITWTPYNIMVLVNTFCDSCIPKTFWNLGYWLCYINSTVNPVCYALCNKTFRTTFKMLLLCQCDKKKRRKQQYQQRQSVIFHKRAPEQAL

[8] = Protein binding in rat plasma; format: ADME, cell-free; details: read-out: PPB (converted)
[9] = Plasma concentration in Sprague-Dawley rat at 10 mg/kg, po after 2 hrs; format: ADME, organism-based; design: dose 10 mg/kg, route oral
[10] = target: T3, Muscarinic acetylcholine receptor M4 (Homo sapiens) (UniProt P08173); experiment: Activity at muscarinic M4 receptor expressing in CHONFAT cells assessed as potentiation of acetylcholine-induced calcium mobilization preincubated for 4 mins and measured 4 mins after acetylcholine stimulation by FLIPR assay; format: functional, cell-based
T3 sequence (whole entry): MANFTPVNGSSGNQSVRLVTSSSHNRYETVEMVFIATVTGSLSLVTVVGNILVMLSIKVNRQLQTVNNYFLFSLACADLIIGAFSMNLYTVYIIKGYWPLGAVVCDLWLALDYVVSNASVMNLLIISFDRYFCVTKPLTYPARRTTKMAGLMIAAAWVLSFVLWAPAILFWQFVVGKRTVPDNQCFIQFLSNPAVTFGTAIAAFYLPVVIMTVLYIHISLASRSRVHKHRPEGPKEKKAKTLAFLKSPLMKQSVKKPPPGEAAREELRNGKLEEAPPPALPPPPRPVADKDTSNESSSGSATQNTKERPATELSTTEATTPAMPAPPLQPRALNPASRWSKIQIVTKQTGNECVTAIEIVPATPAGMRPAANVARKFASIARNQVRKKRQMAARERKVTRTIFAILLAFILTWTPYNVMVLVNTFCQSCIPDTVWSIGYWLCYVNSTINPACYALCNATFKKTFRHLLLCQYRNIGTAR

[11] = Passive permeability across MDCK cells; format: ADME, cell-based, Canis lupus familiaris; details: dog
[12] = Ratio of drug level in brain to plasma of Sprague-Dawley rat at 10 mg/kg, po after 2 hrs; format: ADME, organism-based; design: dose 10 mg/kg, route oral; details: read-out: BPR
Rattus norvegicus = experiment: Ratio of drug level in CSF to unbound drug level in plasma of Sprague-Dawley rat at 10 mg/kg, po after 2 hrs; details: in vivo
Mus musculus [13] = organism: Mus musculus; experiment: Inhibition of scopolamine-induced memory deficit in mouse measured at plasma concentration of 1 uM after 24 hrs by contexual fear conditioning assay; format: functional, organism-based
[14] = target: T2, Muscarinic acetylcholine receptor M1 (Homo sapiens); experiment: Positive allosteric modulation of human muscarinic M1 receptor expressing in CHONFAT cells assessed as potentiation of acetylcholine-induced calcium mobilization at 34 uM preincubated for 4 mins and measured 4 mins after acetylcholine stimulation by FLIPR assay relative to untreated control; format: functional, cell-based
[15] = Fraction unbound in rat plasma; format: ADME, cell-free
Plasma = experiment: Plasma concentration in mouse scopolamine-induced memory deficit model at 10 mg/kg, ip; format: ADME, organism-based; design: dose 10 mg/kg, route intraperitoneal; details: in vivo
[16] = Fraction unbound in human plasma; format: ADME, cell-free
Mus musculus [17] = experiment: Inhibition of scopolamine-induced memory deficit in mouse pretreated with 10 to 30 mg/kg, ip after 24 hrs by contexual fear conditioning assay; format: functional, organism-based
Mus musculus [18] = organism: Mus musculus; experiment: Inhibition of scopolamine-induced memory deficit in mouse measured at plasma concentration of 2.5 uM after 24 hrs by contexual fear conditioning assay; format: functional, organism-based

MDR1 (P-gp, ABCB1), sequence (P08183 whole entry): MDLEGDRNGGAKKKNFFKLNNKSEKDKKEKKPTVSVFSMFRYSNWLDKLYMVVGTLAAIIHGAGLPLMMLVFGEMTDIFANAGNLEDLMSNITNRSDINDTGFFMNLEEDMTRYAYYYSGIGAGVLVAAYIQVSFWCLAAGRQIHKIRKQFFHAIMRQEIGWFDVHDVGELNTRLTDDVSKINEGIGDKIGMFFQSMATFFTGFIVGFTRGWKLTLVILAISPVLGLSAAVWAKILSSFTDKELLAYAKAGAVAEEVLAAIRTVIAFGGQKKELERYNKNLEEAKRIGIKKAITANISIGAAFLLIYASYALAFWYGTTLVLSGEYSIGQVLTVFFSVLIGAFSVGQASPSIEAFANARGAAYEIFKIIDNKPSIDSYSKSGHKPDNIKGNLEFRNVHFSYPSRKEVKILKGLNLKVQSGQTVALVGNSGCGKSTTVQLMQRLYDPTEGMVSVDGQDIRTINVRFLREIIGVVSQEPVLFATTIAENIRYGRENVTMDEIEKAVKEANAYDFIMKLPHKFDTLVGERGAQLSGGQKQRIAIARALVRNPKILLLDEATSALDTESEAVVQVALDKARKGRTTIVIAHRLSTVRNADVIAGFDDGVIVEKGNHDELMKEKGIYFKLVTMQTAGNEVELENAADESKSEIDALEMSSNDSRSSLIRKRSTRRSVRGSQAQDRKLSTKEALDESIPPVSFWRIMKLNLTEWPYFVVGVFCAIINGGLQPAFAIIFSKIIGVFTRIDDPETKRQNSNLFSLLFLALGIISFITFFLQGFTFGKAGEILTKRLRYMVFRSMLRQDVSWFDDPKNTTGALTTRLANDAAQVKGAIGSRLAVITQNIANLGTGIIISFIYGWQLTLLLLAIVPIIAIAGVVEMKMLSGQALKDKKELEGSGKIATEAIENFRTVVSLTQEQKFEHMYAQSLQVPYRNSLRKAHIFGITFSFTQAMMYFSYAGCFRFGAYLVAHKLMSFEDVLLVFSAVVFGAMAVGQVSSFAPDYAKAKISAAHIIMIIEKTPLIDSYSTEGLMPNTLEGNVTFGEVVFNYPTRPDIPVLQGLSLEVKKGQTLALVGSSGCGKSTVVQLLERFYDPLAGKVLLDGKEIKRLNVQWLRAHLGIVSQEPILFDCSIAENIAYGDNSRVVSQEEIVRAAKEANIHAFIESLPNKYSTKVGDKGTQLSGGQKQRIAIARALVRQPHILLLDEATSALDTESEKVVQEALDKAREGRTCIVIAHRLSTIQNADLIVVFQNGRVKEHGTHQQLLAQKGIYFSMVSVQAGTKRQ

## N#CC1(c2ccccc2)CCN(Cc2cc(C(=O)N[C@H]3CCCC[C@@H]3O)c(=O)n3ccccc23)CC1
MDR1 (P-gp, ABCB1)
  efflux ratio: 2.3
[1]
  Activity: inactive
MDR1a (P-gp, ABCB1)
  efflux ratio: 3.3
[2]
  concentration at 2 h: 896 nM
[3]
  IC50: 5100 nM
[4]
  concentration at 2 h: 29 nM
[5]
  IP: 45 nM
[6]
  fraction unbound: 0.148
[7]
  Activity: inactive
[8]
  fraction unbound: 0.031
[9]
  concentration at 2 h: 1610 nM
[10]
  Activity: inactive
[11]
  Papp: 32 ×10⁻⁶ cm/s
[12]
  Kp at 2 h: 0.52
Rattus norvegicus
  Ratio: 0.58

## N#CC1(c2ccccn2)CCN(Cc2cc(C(=O)N[C@H]3CCCC[C@@H]3F)c(=O)n3ccccc23)CC1
MDR1 (P-gp, ABCB1)
  efflux ratio: 1.9
[1]
  Activity: inactive
MDR1a (P-gp, ABCB1)
  efflux ratio: 3.4
[2]
  concentration at 2 h: 280 nM
[4]
  concentration at 2 h: 27 nM
[5]
  IP: 147 nM
[6]
  fraction unbound: 0.185
[7]
  Activity: inactive
[8]
  fraction unbound: 0.073
[9]
  concentration at 2 h: 1120 nM
[10]
  Activity: inactive
[11]
  Papp: 26 ×10⁻⁶ cm/s
[12]
  Kp at 2 h: 0.28
Rattus norvegicus
  Ratio: 0.33

## N#CC1(c2ccccn2)CCN(Cc2cc(C(=O)O)c(=O)n3ccccc23)CC1 [MSD-M1PAM]
MDR1 (P-gp, ABCB1)
  efflux ratio: 0.5
MDR1a (P-gp, ABCB1)
  efflux ratio: 1.4
[6]
  fraction unbound: 0.291
[8]
  fraction unbound: 0.318
Mus musculus [13]
  inhibition: Active
[9]
  concentration at 2 h: 1480 nM
[11]
  Papp: 18 ×10⁻⁶ cm/s
Rattus norvegicus
  Ratio: 0.3

## N#CC1(c2ccccn2)CCN(Cc2cc(C(=O)NC3CCOCC3)c(=O)n3ccccc23)CC1
[14]
  fold change (FC): 52
MDR1 (P-gp, ABCB1)
  efflux ratio: 2.4
[1]
  Activity: inactive
MDR1a (P-gp, ABCB1)
  efflux ratio: 7.5
[2]
  concentration at 2 h: 559 nM
[4]
  concentration at 2 h: 215 nM
[5]
  IP: 338 nM
[6]
  fraction unbound: 0.49
[15]
  fraction unbound: 0.27
[7]
  Activity: inactive
[8]
  fraction unbound: 0.268
Plasma
  concentration: 2400 nM
[9]
  concentration at 2 h: 2650 nM
[16]
  fraction unbound: 0.49
[10]
  Activity: inactive
Mus musculus [17]
  inhibition: Active
[11]
  Papp: 33 ×10⁻⁶ cm/s
[12]
  Kp at 2 h: 0.21
Rattus norvegicus
  Ratio: 0.3

## N#Cc1ccc(N2CCN(Cc3cc(C(=O)N[C@H]4CCCC[C@@H]4O)c(=O)n4ccccc34)CC2)cc1
MDR1 (P-gp, ABCB1)
  efflux ratio: 1.1
[1]
  Activity: inactive
MDR1a (P-gp, ABCB1)
  efflux ratio: 4.7
[3]
  IC50: 390 nM
[5]
  IP: 244 nM
[6]
  fraction unbound: 0.095
[7]
  Activity: inactive
[8]
  fraction unbound: 0.061
[10]
  Activity: inactive
[11]
  Papp: 30 ×10⁻⁶ cm/s

## O=C(N[C@H]1CCCC[C@@H]1O)c1cc(CN2CCN(c3cc4ccccc4cn3)CC2)c2ccccn2c1=O
[1]
  Activity: inactive
[5]
  IP: 110 nM
[6]
  fraction unbound: 0.087
[7]
  Activity: inactive
[8]
  fraction unbound: 0.032
Mus musculus [18]
  inhibition: Active
[10]
  Activity: inactive
[11]
  Papp: 29 ×10⁻⁶ cm/s
